Data: PMC2904498 (2010)
Where two headings read alike, the source gives them in different places.

What was measured:
[1] = target: T1, T. brucei neutral sphingomyelinase (TbnSMase) (Trypanosoma brucei, UniProt B9WNA2); format: biochemical
T1 sequence (B9WNA2 1-580): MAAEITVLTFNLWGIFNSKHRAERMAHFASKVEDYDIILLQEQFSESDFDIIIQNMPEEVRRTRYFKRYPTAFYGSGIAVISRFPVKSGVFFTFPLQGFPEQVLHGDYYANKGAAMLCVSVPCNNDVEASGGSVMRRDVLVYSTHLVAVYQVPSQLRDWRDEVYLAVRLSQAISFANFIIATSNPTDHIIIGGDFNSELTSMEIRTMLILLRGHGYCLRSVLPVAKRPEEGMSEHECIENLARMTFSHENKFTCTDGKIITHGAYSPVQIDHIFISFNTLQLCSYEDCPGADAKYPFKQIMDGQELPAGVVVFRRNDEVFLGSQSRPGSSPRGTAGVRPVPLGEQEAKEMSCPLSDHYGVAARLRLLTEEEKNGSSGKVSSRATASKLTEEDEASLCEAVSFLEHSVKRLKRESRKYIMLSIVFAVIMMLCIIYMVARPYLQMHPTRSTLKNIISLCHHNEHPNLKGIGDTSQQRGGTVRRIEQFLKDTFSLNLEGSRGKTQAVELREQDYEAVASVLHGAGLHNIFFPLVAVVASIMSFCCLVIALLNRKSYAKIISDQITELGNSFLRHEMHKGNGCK

[2] = target: T1, T. brucei neutral sphingomyelinase (TbnSMase); format: biochemical; remark: listed apart in the source

O=C(/C=C/c1ccc(/C=C/C(=O)Nc2ccc(C3=NCCN3)cc2)cc1)Nc1ccc(C2=NCCN2)cc1 [GW4869]
IC50 [1]: 14.4 ± 2.3 µM

CCCC[C@@H](C)/C=C(C)/C=C(\C)C(=O)NC1=C[C@@](O)(/C=C/C=C/C=C/C(=O)NC2=C(O)CCC2=O)[C@@H]2O[C@@H]2C1=O [Manumycin A]
IC50 [1]: 24.6 ± 4.6 µM

CCCCCCCCCCCCCCCCCCOCC(COP(=O)([O-])OCC[N+](C)(C)C)OC (stereo not drawn) [edelfosine]
IC50 [2]: 21 ± 3.2 µM
